Measurements published in patent publication US8247211B2, “Glycopeptide antibiotics” (American Cyanamid Company, priority 2001, dated 2012).

What was measured:
Test in all cases: In vitro antibacterial evaluation: minimum inhibitory concentration (MIC), broth dilution method
Type in all cases: cell-based
Enterococcus sp. = tested on: Enterococcus sp.
Procedure, shortened: (§1)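 MIC read as lowest drug level preventing visible growth. Organisms at 5×10^5 CFU/mL were exposed to a 64-0.06 μg/mL dilution series in Muller-Hinton II […] following NCCLS broth dilution standard M7-A2.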

Escherichia coli [1] = tested on: Escherichia coli
Procedure, shortened: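 Test strains, among them recent clinical isolates carrying methicillin, penicillin and/or vancomycin resistance, were inoculated at 5×10^5 CFU/mL. A broth dilution series spanning 64-0.06 μg/mL in Muller-Hinton II […] (NCCLS M7-A2) defined the MIC as the lowest growth-inhibiting concentration.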

Staphylococcus sp. = conditions: 18 hours at 35° C.
Procedure, shortened: as §1

Streptococcus sp. = conditions: 18 hours at 35° C.
Procedure, shortened: as §1

Escherichia coli [2] = tested on: Escherichia coli; remark: listed apart in the source
[3] = Enterococcus faecalis (ATCC 29212)
[4] = Enterococcus faecalis (GC 2242), 18 hours at 35° C.
[5] = Enterococcus faecalis (GC 4552), 18 hours at 35° C.
[6] = Enterococcus faecalis (GC 4553)
[7] = Enterococcus faecalis (GC 4554)
[8] = broth dilution, 18 hours at 35° C., strain ATCC 29212
[9] = broth dilution, 18 hours at 35° C., strain GC 2242
[10] = broth dilution, 18 hours at 35° C., strain GC 2243
[11] = broth dilution, 18 hours at 35° C., strain GC 4552
[12] = broth dilution, 18 hours at 35° C., strain GC 4553
[13] = broth dilution, 18 hours at 35° C., strain GC 4554
[14] = broth dilution, 18 hours at 35° C., strain GC 4556
[15] = broth dilution, 18 hours at 35° C., strain GC 4557
[16] = broth dilution, 18 hours at 35° C., strain GC 4558
[17] = Staphylococcus aureus (ATCC 29213)
[18] = Staphylococcus aureus (GC 1131)
[19] = Staphylococcus aureus (GC 4541)
[20] = Staphylococcus aureus (GC 4542)
[21] = Staphylococcus aureus (GC 4544)
[22] = Staphylococcus aureus (GC 4545)
[23] = broth dilution, strain ATCC 29213
[24] = Streptococcus agalactiae (GC 4564)
[25] = Streptococcus pneumoniae (GC 4565)

Substance: α-O-[(Benzylamino)carbonyl]-cyclo[glycyl-β-methylphenylalanyl-O-(4-O-hexopyranosylhexopyranosyl)tyrosyl-3-(2-iminoimidazolidin-4-yl)seryl-3-(3-hexopyranosyl-2-iminoimidazolidin-4-yl)serylseryl] [Example 257a]
- MIC Enterococcus avium (GC 4558) (Enterococcus sp.; Enterococcus avium (GC 4558)): >0.5 µg/mL
- MIC Enterococcus faecalis (ATCC 29212) (Enterococcus sp.; [3]): >0.5 µg/mL
- MIC Enterococcus faecalis (GC 2242) (Enterococcus sp.; [4]): >0.5 µg/mL
- MIC Enterococcus faecalis (GC 2691) (Enterococcus sp.; Enterococcus faecalis (GC 2691), 18 hours at 35° C.): 0.5 µg/mL
- MIC Enterococcus faecalis (GC 3059) (Enterococcus sp.; Enterococcus faecalis (GC 3059), 18 hours at 35° C.): >0.5 µg/mL
- MIC Enterococcus faecalis (GC 4552) (Enterococcus sp.; [5]): >0.5 µg/mL
- MIC Enterococcus faecalis (GC 4553) (Enterococcus sp.; [6]): >0.5 µg/mL
- MIC Enterococcus faecalis (GC 4554) (Enterococcus sp.; [7]): >0.5 µg/mL
- MIC Enterococcus faecalis (GC 6189) (Enterococcus sp.; Enterococcus faecalis (GC 6189)): >0.5 µg/mL
- MIC Enterococcus faecium (GC 2243) (Enterococcus sp.; Enterococcus faecium (GC 2243)): >32 µg/mL
- MIC Enterococcus faecium (GC 4556) (Enterococcus sp.; Enterococcus faecium (GC 4556)): >32 µg/mL
- MIC Enterococcus faecium (GC 4557) (Enterococcus sp.; Enterococcus faecium (GC 4557)): 8 µg/mL
- MIC Enterococcus faecalis (ATCC 29212) (Enterococcus sp.; [8]): >0.5 µg/mL
- MIC Enterococcus faecalis (GC 2242) (Enterococcus sp.; [9]): >0.5 µg/mL
- MIC Enterococcus faecium (GC 2243) (Enterococcus sp.; [10]): >32 µg/mL
- MIC Enterococcus faecalis (GC 2691) (Enterococcus sp.; broth dilution, 18 hours at 35° C., strain GC 2691): 0.5 µg/mL
- MIC Enterococcus faecalis (GC 3059) (Enterococcus sp.; broth dilution, 18 hours at 35° C., strain GC 3059): >0.5 µg/mL
- MIC Enterococcus faecalis (GC 4552) (Enterococcus sp.; [11]): >0.5 µg/mL
- MIC Enterococcus faecalis (GC 4553) (Enterococcus sp.; [12]): >0.5 µg/mL
- MIC Enterococcus faecalis (GC 4554) (Enterococcus sp.; [13]): >0.5 µg/mL
- MIC Enterococcus faecium (GC 4556) (Enterococcus sp.; [14]): >32 µg/mL
- MIC Enterococcus faecium (GC 4557) (Enterococcus sp.; [15]): 8 µg/mL
- MIC Enterococcus avium (GC 4558) (Enterococcus sp.; [16]): >0.5 µg/mL
- MIC Enterococcus faecalis (GC 6189) (Enterococcus sp.; broth dilution, 18 hours at 35° C., strain GC 6189): >0.5 µg/mL
- MIC Escherichia coli (GC 4559) (Escherichia coli [1]): >0.5 µg/mL
- MIC Escherichia coli (GC 4560) (Escherichia coli [1]): 0.5 µg/mL
- MIC Coagulase Negative Staphylococcus (GC 4547) (Staphylococcus sp.): 8 µg/mL
- MIC Coagulase Negative Staphylococcus (GC 4548) (Staphylococcus sp.): 8 µg/mL
- MIC Coagulase Negative Staphylococcus (GC 4549) (Staphylococcus sp.): 8 µg/mL
- MIC Coagulase Negative Staphylococcus (GC 4551) (Staphylococcus sp.): 32 µg/mL
- MIC Coagulase Negative Staphylococcus (GC 6257) (Staphylococcus sp.; Coagulase Negative Staphylococcus (GC 6257)): 4 µg/mL
- MIC Staphylococcus aureus (ATCC 29213) (Staphylococcus sp.; [17]): 0.5 µg/mL
- MIC Staphylococcus aureus (GC 1131) (Staphylococcus sp.; [18]): 0.5 µg/mL
- MIC Staphylococcus aureus (GC 3051) (Staphylococcus sp.; Staphylococcus aureus (GC 3051)): 0.5 µg/mL
- MIC Staphylococcus aureus (GC 3053) (Staphylococcus sp.; Staphylococcus aureus (GC 3053)): 0.5 µg/mL
- MIC Staphylococcus aureus (GC 4541) (Staphylococcus sp.; [19]): 0.5 µg/mL
- MIC Staphylococcus aureus (GC 4542) (Staphylococcus sp.; [20]): 0.5 µg/mL
- MIC Staphylococcus aureus (GC 4544) (Staphylococcus sp.; [21]): 0.5 µg/mL
- MIC Staphylococcus aureus (GC 4545) (Staphylococcus sp.; [22]): 0.5 µg/mL
- MIC Staphylococcus aureus-SMITH (GC 4543) (Staphylococcus sp.): 0.5 µg/mL
- MIC Staphylococcus haemolyticus (GC 4546) (Staphylococcus sp.): 8 µg/mL
- MIC Staphylococcus aureus (ATCC 29213) (Staphylococcus sp.; [23]): 0.5 µg/mL
- MIC Staphylococcus aureus (GC 1131) (Staphylococcus sp.; broth dilution, strain GC 1131): 0.5 µg/mL
- MIC Staphylococcus aureus (GC 3051) (Staphylococcus sp.; broth dilution, strain GC 3051): 0.5 µg/mL
- MIC Staphylococcus aureus (GC 3053) (Staphylococcus sp.; broth dilution, strain GC 3053): 0.5 µg/mL
- MIC Staphylococcus aureus (GC 4541) (Staphylococcus sp.; broth dilution, strain GC 4541): 0.5 µg/mL
- MIC Staphylococcus aureus (GC 4542) (Staphylococcus sp.; broth dilution, strain GC 4542): 0.5 µg/mL
- MIC Staphylococcus aureus (GC 4544) (Staphylococcus sp.; broth dilution, strain GC 4544): 0.5 µg/mL
- MIC Staphylococcus aureus (GC 4545) (Staphylococcus sp.; broth dilution, strain GC 4545): 0.5 µg/mL
- MIC Streptococcus agalactiae (GC 4564) (Streptococcus sp.; [24]): 8 µg/mL
- MIC Streptococcus pneumoniae (ATCC 6301) (Streptococcus sp.; Streptococcus pneumoniae (ATCC 6301)): 1 µg/mL
- MIC Streptococcus pneumoniae (GC 1894) (Streptococcus sp.; Streptococcus pneumoniae (GC 1894)): 1 µg/mL
- MIC Streptococcus pneumoniae (GC 4565) (Streptococcus sp.; [25]): 4 µg/mL
- MIC Streptococcus pyogenes (GC 4563) (Streptococcus sp.; Streptococcus pyogenes (GC 4563)): 0.12 µg/mL
- MIC Streptococcus pneumoniae (ATCC 6301) (Streptococcus sp.; broth dilution, strain ATCC 6301): 1 µg/mL
- MIC Streptococcus pneumoniae (GC 1894) (Streptococcus sp.; broth dilution, strain GC 1894): 1 µg/mL
- MIC Streptococcus pyogenes (GC 4563) (Streptococcus sp.; broth dilution, strain GC 4563): 0.12 µg/mL
- MIC Streptococcus agalactiae (GC 4564) (Streptococcus sp.; broth dilution, strain GC 4564): 8 µg/mL
- MIC Streptococcus pneumoniae (GC 4565) (Streptococcus sp.; broth dilution, strain GC 4565): 4 µg/mL
- MIC Escherichia coli (ATCC 25922) (Escherichia coli [2]): >0.5 µg/mL

Substance: β-O-[(Cyclohexylamino)carbonyl]-cyclo[glycyl-β-methylphenylalanyl-O-(4-O-hexonyranosylhexopyranosyl)tyrosyl-3-(2-iminoimidazolidin-4-yl)seryl-3-(3-hexopyranosyl-2-iminoimidazolidin-4-yl)serylseryl] [Example 256a]
- MIC Enterococcus avium (GC 4558) (Enterococcus sp.; Enterococcus avium (GC 4558)): >64 µg/mL
- MIC Enterococcus faecalis (ATCC 29212) (Enterococcus sp.; [3]): >64 µg/mL
- MIC Enterococcus faecalis (GC 2242) (Enterococcus sp.; [4]): >64 µg/mL
- MIC Enterococcus faecalis (GC 4552) (Enterococcus sp.; [5]): >64 µg/mL
- MIC Enterococcus faecalis (GC 4553) (Enterococcus sp.; [6]): >64 µg/mL
- MIC Enterococcus faecalis (GC 4554) (Enterococcus sp.; [7]): >64 µg/mL
- MIC Enterococcus faecium (GC 2243) (Enterococcus sp.; Enterococcus faecium (GC 2243)): >64 µg/mL
- MIC Enterococcus faecium (GC 4556) (Enterococcus sp.; Enterococcus faecium (GC 4556)): >64 µg/mL
- MIC Enterococcus faecium (GC 4557) (Enterococcus sp.; Enterococcus faecium (GC 4557)): 32 µg/mL
- MIC Enterococcus faecalis (ATCC 29212) (Enterococcus sp.; [8]): >64 µg/mL
- MIC Enterococcus faecalis (GC 2242) (Enterococcus sp.; [9]): >64 µg/mL
- MIC Enterococcus faecium (GC 2243) (Enterococcus sp.; [10]): >64 µg/mL
- MIC Enterococcus faecalis (GC 4552) (Enterococcus sp.; [11]): >64 µg/mL
- MIC Enterococcus faecalis (GC 4553) (Enterococcus sp.; [12]): >64 µg/mL
- MIC Enterococcus faecalis (GC 4554) (Enterococcus sp.; [13]): >64 µg/mL
- MIC Enterococcus faecium (GC 4556) (Enterococcus sp.; [14]): >64 µg/mL
- MIC Enterococcus faecium (GC 4557) (Enterococcus sp.; [15]): 32 µg/mL
- MIC Enterococcus avium (GC 4558) (Enterococcus sp.; [16]): >64 µg/mL
- MIC Escherichia coli (GC 4559) (Escherichia coli [1]): >64 µg/mL
- MIC Escherichia coli (GC 4560) (Escherichia coli [1]): 8 µg/mL
- MIC Coagulase Negative Staphylococcus (GC 4547) (Staphylococcus sp.): >64 µg/mL
- MIC Coagulase Negative Staphylococcus (GC 4548) (Staphylococcus sp.): >64 µg/mL
- MIC Coagulase Negative Staphylococcus (GC 4549) (Staphylococcus sp.): >64 µg/mL
- MIC Coagulase Negative Staphylococcus (GC 4551) (Staphylococcus sp.): >64 µg/mL
- MIC Coagulase Negative Staphylococcus (ID-3941) (Staphylococcus sp.; Coagulase Negative Staphylococcus (ID-3941)): 64 µg/mL
- MIC Staphylococcus aureus (ATCC 29213) (Staphylococcus sp.; [17]): >64 µg/mL
- MIC Staphylococcus aureus (GC 1131) (Staphylococcus sp.; [18]): >64 µg/mL
- MIC Staphylococcus aureus (GC 4541) (Staphylococcus sp.; [19]): >64 µg/mL
- MIC Staphylococcus aureus (GC 4542) (Staphylococcus sp.; [20]): >64 µg/mL
- MIC Staphylococcus aureus (GC 4544) (Staphylococcus sp.; [21]): >64 µg/mL
- MIC Staphylococcus aureus (GC 4545) (Staphylococcus sp.; [22]): >64 µg/mL
- MIC Staphylococcus aureus-SMITH (GC 4543) (Staphylococcus sp.): >64 µg/mL
- MIC Staphylococcus haemolyticus (GC 4546) (Staphylococcus sp.): >64 µg/mL
- MIC Staphylococcus aureus (ATCC 29213) (Staphylococcus sp.; [23]): >64 µg/mL
- MIC Staphylococcus aureus (GC 1131) (Staphylococcus sp.; broth dilution, strain GC 1131): >64 µg/mL
- MIC Staphylococcus aureus (GC 4541) (Staphylococcus sp.; broth dilution, strain GC 4541): >64 µg/mL
- MIC Staphylococcus aureus (GC 4542) (Staphylococcus sp.; broth dilution, strain GC 4542): >64 µg/mL
- MIC Staphylococcus aureus (GC 4544) (Staphylococcus sp.; broth dilution, strain GC 4544): >64 µg/mL
- MIC Staphylococcus aureus (GC 4545) (Staphylococcus sp.; broth dilution, strain GC 4545): >64 µg/mL
- MIC Streptococcus agalactiae (GC 4564) (Streptococcus sp.; [24]): >64 µg/mL
- MIC Streptococcus pneumoniae (GC 4565) (Streptococcus sp.; [25]): 64 µg/mL
- MIC Streptococcus pyogenes (ID-3187) (Streptococcus sp.; Streptococcus pyogenes (ID-3187)): 64 µg/mL
- MIC Streptococcus agalactiae (GC 4564) (Streptococcus sp.; broth dilution, strain GC 4564): >64 µg/mL
- MIC Streptococcus pneumoniae (GC 4565) (Streptococcus sp.; broth dilution, strain GC 4565): 64 µg/mL
- MIC Streptococcus pyogenes (ID-3187) (Streptococcus sp.; broth dilution, strain ID-3187): 64 µg/mL
- MIC Escherichia coli (ATCC 25922) (Escherichia coli [2]): >64 µg/mL
